{
  "source": "patent US20020187998A1",
  "about": "“Local ophthalmic agent for treatment of ocular inflammation” (Sucampo AG, priority 2001, published 2002)",
  "format_in_all_cases": "in vivo, human",
  "key": {"[1]": {"system": "progressive corneal ulcer caused by pemphigoid", "test": "Patient case, FK506 eye drops (Example 3)", "details": "0.06% FK506 eye drops three times a day, one patient", "source_text": "A patient suffering from progressive corneal ulcer caused by pemphigoid was instilled with 0.06% FK506 eye drops three times a day."}, "[2]": {"system": "inflammations caused by injury after penetrating keratoplasty, history of steroid glaucoma and chronic rejection", "test": "Patient case, FK506 eye drops after penetrating keratoplasty (Example 7)", "details": "0.06% FK506 eye drops three times a day", "source_text": "As a result, the progression of inflammations caused by injury was arrested and such effects were maintained at 34 weeks later."}, "[3]": {"system": "inflammations caused by foreign bodies (cat hair, cat dander, pollens of a tree, ragweed or grass) instilled in the eye", "test": "Itching on the eye after ocular instillation of foreign bodies, 3 hours after FK506 eye drops (Example 1)", "details": "foreign bodies 3 hours after instillation, graded 5 minutes later, score 0-4, FIG. 1", "source_text": "In a total of four groups each having 30 persons, FK506 eye drops (0.01%, 0.06% and 0.1%) were instilled in the respective experimental groups, and placebo was instilled in the control group. Three hours after the ocular instillation, various foreign bodies (cat hair, cat dander, and pollens of a tree, ragweed or grass) were ocularly instilled in both the experimental groups and the control group, thus causing inflammations. Five minutes later, itching on the eye was graded according to five-rank scores (0-4). The decreases from the score (baseline) in instilling only foreign bodies were calculated."}, "[4]": {"system": "progressive Mooren's ulcer", "test": "Patient case, FK506 eye drops (Example 4)", "details": "0.06% FK506 eye drops three times a day, one patient", "source_text": "A patient suffering from progressive Mooren's ulcer was instilled with 0.06% FK506 eye drops three times a day."}, "[5]": {"system": "penetrating keratoplasty due to keratoconus", "test": "Patient case, FK506 eye drops after penetrating keratoplasty due to keratoconus (Example 9)", "details": "0.06% FK506 eye drops three times a day"}, "[6]": {"system": "chronic nummular keratitis", "test": "Patient case, FK506 eye drops (Example 5)", "details": "0.06% FK506 eye drops three times a day, one patient", "source_text": "A patient suffering from chronic nummular keratitis was instilled with 0.06% FK506 eye drops three times a day."}, "[7]": {"system": "blepharokeratoconjunctivitis", "test": "Patient case, FK506 eye drops (Example 8)", "details": "0.06% FK506 eye drops three times a day"}, "[8]": {"system": "inflammations caused by foreign bodies (cat hair, cat dander, pollens of a tree, ragweed or grass) instilled in the eye", "test": "Conjunctival hyperemia and chemosis after ocular instillation of foreign bodies, 16 hours after final instillation (Example 2)", "details": "0.1% FK506 eye drops once a day for one week", "method": "FK506 was ocularly instilled in the subjects once a day for one week, and the same amount of placebo was ocularly instilled in the control group. At 16 hours after the final ocular instillation, various foreign bodies (cat hair, cat dander, and pollens of a tree, ragweed or grass) were ocularly instilled in both the experimental groups and the control group, thus causing the inflammations. Ten minutes later, conjunctival hyperemia and chemosis were graded according to five-rank scores (0-4). The changes from the score (baseline) in instilling only foreign bodies were calculated."}, "Thygeson keratitis": {"system": "Thygeson keratitis", "test": "Patient case, FK506 eye drops (Example 6)", "details": "0.06% FK506 eye drops three times a day"}, "[9]": {"details": "one patient without conventional therapy"}},
  "data": [
    {"smiles": "C=CC[C@@H]1/C=C(\\C)C[C@H](C)C[C@H](OC)[C@H]2O[C@@](O)(C(=O)C(=O)N3CCCC[C@H]3C(=O)O[C@H](/C(C)=C/[C@@H]3CC[C@@H](O)[C@H](OC)C3)[C@H](C)[C@@H](O)CC1=O)[C@H](C)C[C@@H]2OC", "note": "[FK506, 17-allyl-1,14-dihydroxy-12-[2-(4-hydroxy-3-methoxycyclohexyl)-1-methylvinyl]-23,25-dimethoxy-13,19,21,27-tetramethyl-11,28-dioxa-4-azatricyclo [22.3.1.0^4,9]octacos-18-ene-2,3,10,16-tetraone]", "values": [
      {"measurement": "improving effects", "setting": "[1]", "result": "significant improving effects were observed"},
      {"measurement": "time at which effects were maintained", "setting": "[1]", "result": 43, "unit": "weeks"},
      {"measurement": "progression of inflammations caused by injury", "setting": "[2]; one patient", "result": "arrested"},
      {"measurement": "time at which effects were maintained", "setting": "[2]; one patient", "result": 34, "unit": "weeks"},
      {"measurement": "intraocular pressure increase", "setting": "[2]; patient with history of steroid glaucoma", "result": "no intraocular pressure increase was observed"},
      {"measurement": "decreases of itching score from the baseline, compared with placebo", "setting": "[3]; 0.01% FK506 eye drops", "result": "decreases of itching were greater"},
      {"measurement": "decreases of itching score from the baseline, compared with placebo", "setting": "[3]; 0.06% FK506 eye drops", "result": "decreases of itching were greater"},
      {"measurement": "decreases of itching score from the baseline, compared with placebo", "setting": "[3]; 0.1% FK506 eye drops", "result": "decreases of itching were greater"},
      {"measurement": "improving effects", "setting": "[4]", "result": "significant improving effects were observed"},
      {"measurement": "time at which effects were maintained", "setting": "[4]", "result": 41, "unit": "weeks"},
      {"measurement": "time at which effects were maintained", "setting": "[5]; one patient", "result": 25, "unit": "weeks"},
      {"measurement": "improving effects", "setting": "[5]; [9]", "result": "significant improving effects were observed"},
      {"measurement": "improving effects", "setting": "[6]", "result": "significant improving effects were observed"},
      {"measurement": "time at which effects were maintained", "setting": "[6]", "result": 43, "unit": "weeks"},
      {"measurement": "time until improving effects were observed", "setting": "[6]", "result": "two"},
      {"measurement": "time at which effects were maintained", "setting": "[7]; one patient", "result": 18, "unit": "weeks"},
      {"measurement": "time until improving effects were observed", "setting": "[7]; one patient", "result": "two"},
      {"measurement": "improving effects", "setting": "[7]; [9]", "result": "significant improving effects were observed"},
      {"measurement": "duration of ocular anti-inflammatory effects (antiedemic effect and anti-flare effect)", "setting": "[8]", "result": "at least 16 hours"},
      {"measurement": "Changes of chemosis scores from the baseline, mean ± S.E.", "setting": "[8]; challenge 16 hours after final instillation, graded 10 minutes later, score 0-4, p < 0.001", "result": "−0.30 ± 0.07"},
      {"measurement": "Changes of conjunctival hyperemia scores from the baseline, mean ± S.E.", "setting": "[8]; challenge 16 hours after final instillation, graded 10 minutes later, score 0-4, p < 0.01", "result": "−0.51 ± 0.07"},
      {"measurement": "time at which effects were maintained", "setting": "Thygeson keratitis; one patient", "result": 41, "unit": "weeks"},
      {"measurement": "time until improving effects were observed", "setting": "Thygeson keratitis; one patient", "result": "three"},
      {"measurement": "improving effects", "setting": "Thygeson keratitis; [9]", "result": "significant improving effects were observed"}
    ]}
  ]
}
